According to patent US20050106262A1, “Pharmaceutical composition comprising arsenite for the treatment of malignancy” (Korea Microbiological Laboratories, Ltd., priority 2002, published 2005):

Tests used:
[1] = test system: Ehrlich ascites tumour; conditions: cited from earlier work
[2] = test system: MXAF401NL; experiment: modified propidium iodide cytotoxicity assay, mammary tumour cell line; assay type: cell-based, human; conditions: 4 days of incubation
Procedure: (§1) Various human tumor cells were grown at 37° C. in a humidified atmosphere (95% air, 5% CO2) in monolayer cultures in RPMI 1640 medium with phenol red (Life Technologies, Karlsruhe, Germany) supplemented with 10% fetal calf serum. Cells were trypsinized and maintained weekly.
(§2) A modified propidium iodide assay (based on W. A. Dengler et. al, Anti-Cancer Drugs, 6, pp. 522-532 (1995)) was used to examine the antiproliferative activity of the study compounds. Briefly, cells will be harvested from exponential phase cultures growing in RPMI 1640 medium supplemented with 10% fetal calf serum by trypsination, counted and plated in 96 well flat-bottomed microtiter plates (140 μl cell suspension, 8×10^4 cells/ml). […] After thawing of the plates, fluorescence was measured using a Millipore Cytofluor 2350-microplate reader (excitation 530 nm, emission 620 nm) in order to quantify the total cell number. […]
(§3) Growth inhibition is expressed as Treated/Control×100 (or T/C %). IC50 and IC70 values were determined by plotting compound concentration versus cell number. Mean IC50 and IC70 values were calculated according to the formula: [formula]
(§4) With x=specific tumor cell line and n=total number of cell lines studied. If IC50 or IC70 could not be determined within the examined dose range, the lowest or highest concentration studied was used for the calculation.

[3] = test system: DLD1; experiment: modified propidium iodide cytotoxicity assay, colon tumour cell line; assay type: cell-based, human; conditions: Colon tumour cell line DLD1, 4 days of incubation
Procedure: as §1, §2, §3, §4

[4] = test system: PC3; experiment: modified propidium iodide cytotoxicity assay, prostate tumour cell line; assay type: cell-based, human; conditions: Prostate tumour cell line PC3, 4 days of incubation
Procedure: as §1, §2, §3, §4

[5] = test system: promyelocytic leukaemia; experiment: modified propidium iodide cytotoxicity assay, promyelocytic leukaemia (comparison); assay type: cell-based, human
Procedure: as §1, §2, §3, §4

[6] = test system: GXF251L; experiment: modified propidium iodide cytotoxicity assay, gastric tumour cell line; assay type: cell-based, human; conditions: 4 days of incubation
Procedure: as §1, §2, §3, §4

[7] = test system: RXF486L; experiment: modified propidium iodide cytotoxicity assay, renal tumour cell line; assay type: cell-based, human; conditions: 4 days of incubation
Procedure: as §1, §2, §3, §4

[8] = test system: OVCAR3; experiment: modified propidium iodide cytotoxicity assay, ovarian tumour cell line; assay type: cell-based, human; conditions: Ovarian tumour cell line OVCAR3, 4 days of incubation
Procedure: as §1, §2, §3, §4

| Substance | effect on tumour growth [1] | IC70 [2] | IC70 [3] | IC70 [4] | IC70 ([5]; promyelocytic leukaemia, comparison) | sensitivity of the Table I tumour cells relative to promyelocytic leukaemia ([5]; ratio of IC70 values, solid tumour cells versus promyelocytic leukaemia) | IC70 [6] | IC70 [7] | IC70 [8] |
| --- | --- | --- | --- | --- | --- | --- | --- | --- | --- |
| Potassium arsenite | affected only the growth of Ehrlich ascites tumour | – | – | – | – | – | – | – | – |
| salt of meta-arsenite (AsO2^−) [meta-arsenite compound] | – | 0.32 µg/mL | 0.48 µg/mL | 0.85 µg/mL | 6.82 µg/mL | 2 to 20 times | 3.08 µg/mL | 0.63 µg/mL | 3.02 µg/mL |
